Data on two compounds can be found in ChEMBL document CHEMBL2203186, “T-type Ca2+ channel blocker, KYS05047 induces G1 phase cell cycle arrest by decreasing intracellular Ca2+ levels in human lung adenocarcinoma A549 cells” (Bioorg Med Chem Lett, 2012).

For data set [1], the system named is A549. Briefly: Cytocidal activity in human A549 cells at 6 to 8 uM by trypan Blue assay. Format: functional, cell-based.
Data set [2] has as its system A549. Briefly: Inhibition of T-type Ca2+ channel in human A549 cells assessed as reduction in intracellular ca2+ level at 3 to 8 uM after 108 mins by Fluo-4 staining method. Format: cell-based.
Data set [3] concerns A549. Briefly: Upregulation of p27Kip1 protein level in human A549 cells assessed as inhibition of CDK4-mediated Rb phosphorylation at 7 uM by Western blot method. Particulars: TDE = time-dependent effect. Format: functional, cell-based.
For data set [4], the system named is A549. Briefly: Upregulation of p27Kip1 protein level in human A549 cells assessed as inhibition of CDK2 activity at 7 uM by Western blot method. Format: functional, cell-based. The conditions noted are these: TDE = time-dependent effect.
Data set [5] has as its system A549. As to the kind of experiment: Upregulation of p27Kip1 protein level in human A549 cells assessed as inhibition of mTOR activity at 7 uM by Western blot method. Format: functional, cell-based. Particulars: TDE = time-dependent effect.
In data set [6] the test system is A549. As to the kind of experiment: Growth inhibition of human A549 cells at 4 to 12 uM by trypan Blue assay. Format: functional, cell-based. The conditions noted are these: TDE = time-dependent effect.
Data set [7] concerns A549. Briefly: Effect on Cyclin E protein level in human A549 cells at 7 uM after 3 to 24 hrs by Western blot method. Format: functional, cell-based.
Data set [8] concerns A549. As to the kind of experiment: Antitumor activity against human A549 cells xenografted in BALB/c nu/nu mouse assessed as tumor growth inhibition at 2 to 10 mg/kg, po administered 5 times a week for 21 days. Format: functional, organism-based.
Data set [9] concerns A549. As to the kind of experiment: Effect on Cyclin D1 protein level in human A549 cells at 7 uM after 3 to 24 hrs by Western blot method. Format: functional, cell-based.
Data set [10] has as its system A549. Briefly: Growth inhibition of human A549 cells at 6 to 48 hrs by trypan Blue assay. Format: functional, cell-based.
For data set [11], the system named is A549. As to the kind of experiment: Upregulation of p27Kip1 protein level in human A549 cells assessed as inhibition of AKT activity at 7 uM by Western blot method. Format: functional, cell-based. The conditions noted are these: TDE = time-dependent effect.
Data set [12] concerns A549. As to the kind of experiment: Upregulation of p27Kip1 protein level in human A549 cells at 7 uM by Western blot method. Format: functional, cell-based. The conditions noted are these: TDE = time-dependent effect.
Data set [13] concerns A549. Briefly: Downregulation of Cdk2 protein level in human A549 cells at 7 uM after 3 to 24 hrs by Western blot method. Format: functional, cell-based.
The subject of data set [14] is A549. Briefly: Effect on p21Waf1 protein level in human A549 cells at 7 uM after 3 to 24 hrs by Western blot method. Format: functional, cell-based.
Data set [15] relates to A549. Briefly: Cell cycle arrest at G1 phase in human A549 cells at 7 uM after 24 hrs using propidium iodide by flow cytometry. Format: functional, cell-based.
Data set [16] relates to A549. Briefly: Downregulation of Cdk4 protein level in human A549 cells at 7 uM after 3 to 24 hrs by Western blot method. Format: functional, cell-based.
The test system of data set [17] is A549. As to the kind of experiment: Inhibition of T-type Ca2+ channel in human A549 cells assessed as reduction in intracellular ca2+ level at 3 to 8 uM after 108 mins by Fluo-4 staining method in presence of KCl. Format: cell-based.
Data set [18] concerns A549. Briefly: Cell cycle arrest at G1 phase in human A549 cells at 7 uM after 24 hrs using propidium iodide by flow cytometry in presence of KCl. Format: functional, cell-based.
The test system of data set [19] is A549. Briefly: Cell cycle arrest in human A549 cells assessed as reduction in cells at S phase at 2 to 7 uM after 24 hrs using propidium iodide by flow cytometry. Format: functional, cell-based.
Data set [20] has as its system A549. Briefly: Antitumor activity against human A549 cells xenografted in BALB/c nu/nu mouse assessed as tumor growth inhibition at 20 mg/kg, ip administered twice a week for 21 days. Format: functional, organism-based. Details: dose 20 mg/kg.
Data set [21] deals with Mus musculus. As to the kind of experiment: Toxicity in BALB/c nu/nu mouse assessed as change in body weight at 20 mg/kg, ip administered twice a week for 21 days. Format: organism-based. Details: dose 20 mg/kg, route intraperitoneal. Particulars: in vivo, 504 h.
Data set [22] relates to Mus musculus. Briefly: Toxicity in BALB/c nu/nu mouse assessed as mortality at 20 mg/kg, ip administered twice a week for 21 days. Format: organism-based. Details: dose 20 mg/kg, route intraperitoneal. The conditions noted are these: in vivo, 504 h.

Active and inactive are the calls of the source. The rule behind the calls is not given here.

In the case of `CC(C)(C)OC(=O)NCCCCCN1C(Nc2ccc(-c3ccccc3)cc2)=Nc2ccccc2C1CC(=O)NCc1ccccc1` (configuration not stated), the outcome in data set [1], in data set [7], in data set [9], in data set [14] and in [18] was inactive. Also, the inhibition entry in data set [2] was “Active”. Further, the inhibition result in data set [3], in data set [4], in [5] and in data set [11] was “tde” each time. The results for the “growth inhibition (GI)” value in data set [6] and in data set [10] were “tde” and “Dose-dependent effect”, respectively. Besides, the TGI entry in data set [8] was “Active”. Besides, the Activity result in data set [12] is “tde”. Further, the outcome in data set [13], in data set [15], in [16] and in data set [19] was Active. Also, in data set [17], the inhibition entry is “inactive”.

For `CC(=O)O[C@H]1C(=O)[C@@]2(C)[C@H]([C@H](OC(=O)c3ccccc3)[C@]3(O)C[C@H](OC(=O)[C@H](O)[C@@H](NC(=O)c4ccccc4)c4ccccc4)C(C)=C1C3(C)C)[C@]1(OC(C)=O)CO[C@@H]1C[C@@H]2O` [PACLITAXEL], the TGI result in data set [20] is “Active”. Further, the Activity entry in data set [21] and in data set [22] was “Non-toxic” in each case.
